One assay addresses ERK2 (Homo sapiens (Human), UniProt P28482). Kind of assay: In vitro ERK2 kinase activity assay (33P-ATP, filter-binding). The assay is classed as biochemical. As to the method: The ability of compounds to inhibit ERK1 and ERK2 kinase activity was measured.
20 mM Hepes (pH 7.5), 10 mM MgCl2, 1 mM ethylenebis(oxyethylenenitrilo)tetraacetic acid (EGTA), 0.02% Brij35, 0.02 mg/mL bovine serum albumin (BSA), 0.1 mM Na3VO4, 2 mM dithiothreitol (DTT), 1% DMSO.
The assay compound was dissolved in 100% DMSO to prepare a stock solution of specific concentration. The compound was serially diluted in DMSO solution using Integra Viaflo Assist smart pipette.
• a) The substrate MBP was prepared in freshly prepared reaction buffer; • b) ERK1 (or ERK2) kinase was added to the above-mentioned MBP solution and mixed gently; • c) The compound dissolved in 100% DMSO was added to the kinase reaction system using ultrasound technology (Echo550; nanoliter range), and the mixture was incubated at room temperature for 20 minutes; • d)^33P-ATP (specific concentration of […]) was added to the reaction system, and the reaction was started at this time; • e) The mixture was incubated at room temperature for 2 hours; • f) The amount of radioactivity was detected by filter-binding method; • g) ERK1 (or ERK2) kinase activity was calculated as the ratio of the remaining kinase activity in the assay sample to the kinase activity of the control group (treated by DMSO).
Curve was fitted using Prism (GraphPad software) and IC50 values were calculated.

The test system of another assay is HT29 tumor cells. Kind of assay: In vitro cell proliferation inhibition (CellTiterGlo). The assay is classed as cell-based. Particulars: Homo sapiens, HT-29. The protocol: The ability of compounds to inhibit the proliferation of HT29 tumor cells was measured.
The assay compound was dissolved in 100% DMSO to prepare 10 mM stock solution.
• a) UV light of a biological safety cabin was turned on, and 30 minutes were counted down; • b) In a 37° C. water bath, RPMI1640 medium and trypsin were preheated; • c) After completion of the UV irradiation, the biological safety cabin was opened. The preheated medium, trypsin and phosphate buffered saline (PBS), etc. were wiped with alcohol and placed in the biological safety cabin; • d) HT29 cells were removed from the incubator, and the old medium was removed in biological safety cabin. 10 ml of PBS was added. […] The culture vessel was shaken horizontally so that the trypsin evenly covered the cells at the bottom, and placed in an incubator for 2 minutes; • f) Cell digestion was stopped with complete medium, and the cell suspension was pipetted to homogeneity and counted; • g) According to the result of cell counting, the density of cell suspension was adjusted to 1500 cells per well, and the cell suspension was seeded at 50 μl per well; • h) The stock solution of compounds was serially diluted in DMSO solution, and compounds were added to cell plate using Tecan; • i) The compound-added cell plate and CellTiterGlo were equilibrated at room temperature, and 25 microliters of CellTiterGlo was then added to each well. […]

The source of these data is patent US20240300975A1, “DIMETHYL-SUBSTITUTED THIAZOLOLACTAM COMPOUND AND USE THEREOF” (D3 Bio (Wuxi) Co., Ltd., priority 2021, published 2024).

Structures are written as SMILES.

Sequence of ERK2 (P28482 whole entry): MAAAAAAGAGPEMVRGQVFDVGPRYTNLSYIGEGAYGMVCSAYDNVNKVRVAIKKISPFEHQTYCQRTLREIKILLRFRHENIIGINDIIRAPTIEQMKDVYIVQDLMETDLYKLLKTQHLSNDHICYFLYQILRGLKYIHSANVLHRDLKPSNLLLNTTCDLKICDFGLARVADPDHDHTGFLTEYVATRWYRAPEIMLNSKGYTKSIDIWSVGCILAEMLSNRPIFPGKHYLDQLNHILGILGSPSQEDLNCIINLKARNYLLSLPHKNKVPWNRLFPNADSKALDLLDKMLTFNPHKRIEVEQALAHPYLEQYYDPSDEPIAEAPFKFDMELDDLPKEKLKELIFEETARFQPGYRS

For `Cc1cccc(CN2C(=O)c3nc(-c4nc(NC5CCOCC5)ncc4C)sc3C2(C)C)n1` [WX002], the IC50 at ERK2 is 0.47 nM; in the assay on HT29 tumor cells it was 46 nM.

`Cc1cccc(CN2C(=O)c3nc(-c4ccnc(Nc5ccnn5C)n4)sc3C2(C)C)n1` [WX003] yielded an IC50 at ERK2 of 0.93 nM.

The compound `CCc1cnc(Nc2ccnn2C)nc1-c1nc2c(s1)C(C)(C)N(Cc1cccc(C)n1)C2=O` [WX004] yielded an IC50 at ERK2 of 0.34 nM.

As a reminder, the IC50 is the concentration that gives 50% inhibition. A low value points to inhibition by little substance.
